Source: patent US20240299387A1, “HETEROCYCLIC EGFR INHIBITORS FOR USE IN THE TREATMENT OF CANCER” (Blueprint Medicines Corporation, priority 2021, published 2024)

Assays:
[1] = molecular target: T1, EGFR (L858R T790M C797S) (Homo sapiens, UniProt P00533, C797S/L858R/T790M); assay: Biochemical EGFR inhibition assay (Caliper mobility shift), EGFR LRTMCS mutant; settings: LRTMCS (PH) IC50 (nM) @ 1 mM ATP (Num)
T1 construct: purchased SignalChem E10-122VG
Experimental: Reactions proceeded until between 10% to 20% total peptides were phosphorylated at room temperature (25° C.) and were terminated with 35 mM 2,2′,2″,2′″-(ethane-1,2-diyldinitrilo)tetraacetic acid (EDTA). Product was detected using the Caliper mobility shift detection method where the phosphorylated peptide (product) and substrate were electrophoretically separated and measured. Percent activity was plotted against log concentration of compound and points to generate an apparent IC50.

[2] = molecular target: T2, EGFR L858R T790M in NCI-H1975 cell line (Homo sapiens, UniProt P00533, L858R/T790M); assay: NCI-H1975 pEGFR AlphaLISA assay; type: cell-based; settings: NCI-H1975 cells (EGFR L858R T790M), p-EGFR (Tyr1068), 4-5 hours incubation; read-out: Ext pEGFR H1975 GMean IC50 (nM) Protocol: @Pharmaron AlphaLISA (Num)
T2 construct: host or cells: NCI-H1975
Experimental: The NCI-H1975 cells were seeded at 12.5K/well in 22 μL into 384 well opti plate (PerkinElmer, 6007299) and adhering overnight at 37C/5% CO2. On the next day, the test compounds and DMSO control were added into H1975 cell plate followed by incubation at 37C/5% CO2 for 4-5 hours. […] Then 5 μL of a donor bead mix was added to each well followed by overnight incubation at room temperature in dark. On the next day, the plate was read at a compatible plate reader to obtain pEGFR signal. Percent of pEGFR inhibition was plotted against log concentration of compounds to generate IC50 values.

T1 sequence (P00533 25-1210 T790M/C797S/L858R): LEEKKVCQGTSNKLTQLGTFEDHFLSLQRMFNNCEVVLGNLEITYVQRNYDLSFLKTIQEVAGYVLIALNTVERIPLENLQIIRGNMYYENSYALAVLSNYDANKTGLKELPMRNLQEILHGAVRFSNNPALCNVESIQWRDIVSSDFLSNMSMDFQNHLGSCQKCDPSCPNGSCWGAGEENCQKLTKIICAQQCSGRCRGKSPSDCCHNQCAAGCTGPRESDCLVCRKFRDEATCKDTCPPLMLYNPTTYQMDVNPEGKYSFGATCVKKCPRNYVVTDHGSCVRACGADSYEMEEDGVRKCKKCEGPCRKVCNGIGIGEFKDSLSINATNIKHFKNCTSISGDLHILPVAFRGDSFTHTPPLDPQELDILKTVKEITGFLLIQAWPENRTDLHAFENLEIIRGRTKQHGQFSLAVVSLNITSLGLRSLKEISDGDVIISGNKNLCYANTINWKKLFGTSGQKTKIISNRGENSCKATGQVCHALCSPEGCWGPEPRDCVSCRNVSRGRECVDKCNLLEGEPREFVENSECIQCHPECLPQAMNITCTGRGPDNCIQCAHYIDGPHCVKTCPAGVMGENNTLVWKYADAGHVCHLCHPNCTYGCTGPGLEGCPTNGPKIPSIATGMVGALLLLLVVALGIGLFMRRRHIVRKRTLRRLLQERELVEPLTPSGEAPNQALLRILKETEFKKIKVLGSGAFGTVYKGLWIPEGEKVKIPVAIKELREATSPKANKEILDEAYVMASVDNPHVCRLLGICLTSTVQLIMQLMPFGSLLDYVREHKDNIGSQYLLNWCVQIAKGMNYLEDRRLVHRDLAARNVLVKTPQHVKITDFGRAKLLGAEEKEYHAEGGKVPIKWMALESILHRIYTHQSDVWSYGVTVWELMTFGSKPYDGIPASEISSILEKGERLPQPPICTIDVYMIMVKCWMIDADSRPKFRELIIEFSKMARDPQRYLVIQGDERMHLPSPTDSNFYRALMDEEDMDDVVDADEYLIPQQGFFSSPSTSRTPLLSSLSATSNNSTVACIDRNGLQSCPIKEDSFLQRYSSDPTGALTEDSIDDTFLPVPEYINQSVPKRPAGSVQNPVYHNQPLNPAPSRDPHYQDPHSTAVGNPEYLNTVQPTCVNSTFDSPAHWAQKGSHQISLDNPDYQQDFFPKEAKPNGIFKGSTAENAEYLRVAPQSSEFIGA
T2 sequence (P00533 25-1210 T790M/L858R): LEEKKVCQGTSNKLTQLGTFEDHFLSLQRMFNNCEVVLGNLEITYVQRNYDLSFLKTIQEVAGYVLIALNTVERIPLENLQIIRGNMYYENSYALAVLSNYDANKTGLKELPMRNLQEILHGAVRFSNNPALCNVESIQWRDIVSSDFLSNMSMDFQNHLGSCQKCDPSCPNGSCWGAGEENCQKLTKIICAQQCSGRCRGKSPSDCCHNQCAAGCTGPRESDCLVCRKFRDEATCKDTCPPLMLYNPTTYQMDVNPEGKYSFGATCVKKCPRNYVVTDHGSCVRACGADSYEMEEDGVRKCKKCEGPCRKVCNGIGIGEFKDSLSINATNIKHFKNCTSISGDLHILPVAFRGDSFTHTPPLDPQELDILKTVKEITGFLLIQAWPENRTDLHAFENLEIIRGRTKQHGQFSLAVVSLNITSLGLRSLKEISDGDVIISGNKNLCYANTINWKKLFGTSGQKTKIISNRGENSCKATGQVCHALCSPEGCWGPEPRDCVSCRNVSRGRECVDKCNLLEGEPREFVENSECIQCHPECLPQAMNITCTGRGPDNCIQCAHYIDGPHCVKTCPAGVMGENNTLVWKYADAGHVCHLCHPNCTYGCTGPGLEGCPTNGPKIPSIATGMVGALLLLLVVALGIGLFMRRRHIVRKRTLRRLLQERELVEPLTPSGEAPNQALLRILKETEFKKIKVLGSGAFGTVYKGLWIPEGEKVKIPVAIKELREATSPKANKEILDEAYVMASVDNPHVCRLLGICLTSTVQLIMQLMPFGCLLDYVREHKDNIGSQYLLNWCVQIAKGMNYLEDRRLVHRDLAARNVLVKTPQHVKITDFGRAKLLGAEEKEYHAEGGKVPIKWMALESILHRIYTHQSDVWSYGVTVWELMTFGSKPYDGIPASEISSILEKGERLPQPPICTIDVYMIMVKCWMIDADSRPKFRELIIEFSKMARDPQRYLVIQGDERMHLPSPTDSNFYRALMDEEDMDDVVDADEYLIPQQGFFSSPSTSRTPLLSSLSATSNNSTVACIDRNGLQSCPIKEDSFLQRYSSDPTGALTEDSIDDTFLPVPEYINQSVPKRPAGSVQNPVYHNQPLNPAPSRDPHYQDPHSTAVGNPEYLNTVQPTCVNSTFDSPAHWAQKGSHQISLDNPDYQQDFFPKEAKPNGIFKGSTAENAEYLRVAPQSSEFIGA

| IC50 [1] | IC50 [2] | Compound |
| --- | --- | --- |
| 15 to 20 nM | 30 to 50 nM | CC(=O)N1CC(C)(COc2ccc(C(C)C)c3cc(Nc4ccnc(N5CC[C@@H](O)[C@@](C)(F)C5)n4)ncc23)C1 [Example 7, 1-(3-(((3-((2-((3S,4R)-3-fluoro-4-hydroxy-3-methylpiperidin-1-yl)pyrimidin-4-yl)amino)-5-isopropylisoquinolin-8-yl)oxy)methyl)-3-methylazetidin-1-yl)ethan-1-one] |
| < 15 nM | < 10 nM | CC(=O)N1CC(COc2ccc(C(C)C)c3cc(Nc4ccnc(N5CC[C@@H](O)[C@@](C)(F)C5)n4)ncc23)C1 [Example 8, 1-(3-(((3-((2-((3S,4R)-3-fluoro-4-hydroxy-3-methylpiperidin-1-yl)pyrimidin-4-yl)amino)-5-isopropylisoquinolin-8-yl)oxy)methyl)azetidin-1-yl)ethan-1-one] |
| < 15 nM | > 50 nM | CC(C)c1ccc(OCc2cnn(C)c2)c2cnc(Nc3ccnc(N4CC[C@@H](O)[C@@](C)(F)C4)n3)cc12 [Example 9, (3S,4R)-3-fluoro-1-(4-((5-isopropyl-8-((1-methyl-1H-pyrazol-4-yl)methoxy)isoquinolin-3-yl)amino)pyrimidin-2-yl)-3-methylpiperidin-4-ol] |
| < 15 nM | 30 to 50 nM | CC(C)c1ccc(OCc2cn(C)nn2)c2cnc(Nc3ccnc(N4CC[C@@H](O)[C@@](C)(F)C4)n3)cc12 [Example 10, (3S,4R)-3-fluoro-1-(4-((5-isopropyl-8-((1-methyl-1H-1,2,3-triazol-4-yl)methoxy)isoquinolin-3-yl)amino)pyrimidin-2-yl)-3-methylpiperidin-4-ol] |
| 20 to 30 nM | > 50 nM | CC(=O)N1CC(COc2ccc(C(C)C)c3cc(Nc4ccnc(N5CC[C@@](C)(O)[C@@H](F)C5)n4)ncc23)C1 [Example 11, 1-(3-(((3-((2-((3S,4R)-3-fluoro-4-hydroxy-4-methylpiperidin-1-yl)pyrimidin-4-yl)amino)-5-isopropylisoquinolin-8-yl)oxy)methyl)azetidin-1-yl)ethanone] |
| < 15 nM | > 50 nM | CC(C)c1ccc(OCCn2ccnc2)c2cnc(Nc3ccnc(N4CC[C@@](C)(O)[C@@H](F)C4)n3)cc12 [Example 12, (3S,4R)-1-(4-((8-(2-(1H-imidazol-1-yl)ethoxy)-5-isopropylisoquinolin-3-yl)amino)pyrimidin-2-yl)-3-fluoro-4-methylpiperidin-4-ol] |
| < 15 nM | 30 to 50 nM | Cc1nccn1CCOc1ccc(C(C)C)c2cc(Nc3ccnc(N4CC[C@@](C)(O)[C@@H](F)C4)n3)ncc12 [Example 13, (3S,4R)-3-fluoro-1-(4-((5-isopropyl-8-(2-(2-methyl-1H-imidazol-1-yl)ethoxy)isoquinolin-3-yl)amino)pyrimidin-2-yl)-4-methylpiperidin-4-ol] |
| 20 to 30 nM | > 50 nM | CC(=O)N1CC(COc2ccc(C(C)C)c3cc(Nc4ccnc(N5CCC(C)(O)CC5)n4)ncc23)C1 [Example 14, 1-(3-(((3-((2-(4-hydroxy-4-methylpiperidin-1-yl)pyrimidin-4-yl)amino)-5-isopropylisoquinolin-8-yl)oxy)methyl)azetidin-1-yl)ethanone] |
| < 15 nM | 30 to 50 nM | CC(C)c1ccc(OCCn2cncn2)c2cnc(Nc3ccnc(N4CCC(C)(O)CC4)n3)cc12 [Example 15, 1-(4-((8-(2-(1H-1,2,4-triazol-1-yl)ethoxy)-5-isopropylisoquinolin-3-yl)amino)pyrimidin-2-yl)-4-methylpiperidin-4-ol] |
| 20 to 30 nM | > 50 nM | CC(C)c1ccc(OC[C@H]2CN(C)C(=O)O2)c2cnc(Nc3ccnc(N4CCC(C)(O)CC4)n3)cc12 [Example 16, (R)-5-(((3-((2-(4-hydroxy-4-methylpiperidin-1-yl)pyrimidin-4-yl)amino)-5-isopropylisoquinolin-8-yl)oxy)methyl)-3-methyloxazolidin-2-one] |
| < 15 nM | > 50 nM | CC(C)c1ccc(OCCn2ccnc2)c2cnc(Nc3ccnc(N4CCC(C)(O)CC4)n3)cc12 [Example 17, 1-(4-((8-(2-(1H-imidazol-1-yl)ethoxy)-5-isopropylisoquinolin-3-yl)amino)pyrimidin-2-yl)-4-methylpiperidin-4-ol] |
| < 15 nM | 20 to 30 nM | CC(C)c1ccc(OCC2CCc3cncn32)c2cnc(Nc3ccnc(N4CCC(C)(O)CC4)n3)cc12 (stereo not shown) [Example 18, 1-(4-((8-((6,7-dihydro-5Hpyrrolo[1,2-c]imidazol-5-yl)methoxy)-5-isopropylisoquinolin-3-yl)amino)pyrimidin-2-yl)-4-methylpiperidin-4-ol] |
| 15 to 20 nM | > 50 nM | CC(C)c1ccc(OC[C@H]2CCC(=O)N2C)c2cnc(Nc3ccnc(N4CC[C@](C)(O)[C@H](F)C4)n3)cc12 [Example 25, (R)-5-(((3-((2-((3R,4S)-3-fluoro-4-hydroxy-4-methylpiperidin-1-yl)pyrimidin-4-yl)amino)-5-isopropylisoquinolin-8-yl)oxy)methyl)-1-methylpyrrolidin-2-one] |
| 15 to 20 nM | > 50 nM | CC(=O)N1CC(COc2ccc(C(C)C)c3cc(Nc4ccnc(N5CC[C@](C)(O)[C@H](F)C5)n4)ncc23)C1 [Example 26, 1-(3-(((3-((2-((3R,4S)-3-fluoro-4-hydroxy-4-methylpiperidin-1-yl)pyrimidin-4-yl)amino)-5-isopropylisoquinolin-8-yl)oxy)methyl)azetidin-1-yl)ethan-1-one] |
| < 15 nM | > 50 nM | CC(C)c1ccc(OCCn2cnnc2)c2cnc(Nc3ccnc(N4CC[C@](C)(O)[C@H](F)C4)n3)cc12 [Example 27, (3R,4S)-1-(4-((8-(2-(4H-1,2,4-triazol-4-yl)ethoxy)-5-isopropylisoquinolin-3-yl)amino)pyrimidin-2-yl)-3-fluoro-4-methylpiperidin-4-ol] |
| < 15 nM | 20 to 30 nM | CC(C)c1ccc(OCCn2cnnc2)c2cnc(Nc3ccnc(N4CC[C@@](C)(O)[C@@H](F)C4)n3)cc12 [Example 28, (3S,4R)-1-(4-((8-(2-(4H-1,2,4-triazol-4-yl)ethoxy)-5-isopropylisoquinolin-3-yl)amino)pyrimidin-2-yl)-3-fluoro-4-methylpiperidin-4-ol] |
| < 15 nM | 20 to 30 nM | CC(C)c1ccc(OCCn2ccnc2)c2cnc(Nc3ccnc(N4CC[C@](C)(O)[C@H](F)C4)n3)cc12 [Example 29, (3R,4S)-1-(4-((8-(2-(1H-imidazol-1-yl)ethoxy)-5-isopropylisoquinolin-3-yl)amino)pyrimidin-2-yl)-3-fluoro-4-methylpiperidin-4-ol] |
| < 15 nM | > 50 nM | Cc1nncn1CCOc1ccc(C(C)C)c2cc(Nc3ccnc(N4CC[C@](C)(O)[C@H](F)C4)n3)ncc12 [Example 30, (3R,4S)-3-fluoro-1-(4-((5-isopropyl-8-(2-(3-methyl-4H-1,2,4-triazol-4-yl)ethoxy)isoquinolin-3-yl)amino)pyrimidin-2-yl)-4-methylpiperidin-4-ol] |
| < 15 nM | > 50 nM | CC(C)c1ccc(OCCN2CCOCC2)c2cnc(Nc3ccnc(N4CC[C@](C)(O)[C@H](F)C4)n3)cc12 [Example 31, (3R,4S)-3-fluoro-1-(4-((5-isopropyl-8-(2-morpholinoethoxy)isoquinolin-3-yl)amino)pyrimidin-2-yl)-4-methylpiperidin-4-ol] |
| < 15 nM | > 50 nM | CC(C)c1ccc(OCCn2ccnn2)c2cnc(Nc3ccnc(N4CC[C@](C)(O)[C@H](F)C4)n3)cc12 [Example 32, (3R,4S)-1-(4-((8-(2-(1H-1,2,3-triazol-1-yl)ethoxy)-5-isopropylisoquinolin-3-yl)amino)pyrimidin-2-yl)-3-fluoro-4-methylpiperidin-4-ol] |
| 15 to 20 nM | 30 to 50 nM | CC(C)c1ccc(OC[C@@H]2CCC(=O)N2C)c2cnc(Nc3ccnc(N4CC[C@](C)(O)[C@H](F)C4)n3)cc12 [Example 33, (S)-5-(((3-((2-((3R,4S)-3-fluoro-4-hydroxy-4-methylpiperidin-1-yl)pyrimidin-4-yl)amino)-5-isopropylisoquinolin-8-yl)oxy)methyl)-1-methylpyrrolidin-2-one] |
| 15 to 20 nM | > 50 nM | CC(C)c1ccc(OCCc2ccnn2C)c2cnc(Nc3ccnc(N4CC[C@](C)(O)[C@H](F)C4)n3)cc12 [Example 34, (3R,4S)-3-fluoro-1-(4-((5-isopropyl-8-(2-(1-methyl-1H-pyrazol-5-yl)ethoxy)isoquinolin-3-yl)amino)pyrimidin-2-yl)-4-methylpiperidin-4-ol] |
| 15 to 20 nM | 30 to 50 nM | CC(C)c1ccc(OCCc2cnnn2C)c2cnc(Nc3ccnc(N4CC[C@](C)(O)[C@H](F)C4)n3)cc12 [Example 35, (3R,4S)-3-fluoro-1-(4-((5-isopropyl-8-(2-(1-methyl-1H-1,2,3-triazol-5-yl)ethoxy)isoquinolin-3-yl)amino)pyrimidin-2-yl)-4-methylpiperidin-4-ol] |
